From patent US10175228B2, “Method of using transmembrane channel-like protein 6 (TMC6) protein to identify substances affecting salty taste” (priority 2016, dated 2019)

How the values were obtained:
[1] = tested on: Macaca mulatta TMC6 protein; assay: Calcium imaging of CHO-K1 cells expressing the Macaca mulatta TMC6 gene; assay type: cell-based; conditions: stimulation with high-concentration NaCl solution for 60 sec, 28 cells
Source text: CHO-K1 cells were transfected with Macaca mulatta TMC6-2A-YC260TM in pcDNA3.1(−), Pongo abelii TMC6-2A-YC260TM in pcDNA3.1(−), Mouse-Aotus nancymaae chimera TMC6 2A-YC260TM in pcDNA3.1(−), or YC2.60-pcDNA, to prepare TMC6-expressing cells (cells expressing the Macaca mulatta TMC6 gene, the Pongo abelii TMC6 gene, or the mouse/Aotus nancymaae chimeric TMC6 gene, in combination with the YC2.60 gene) and control cells (cells expressing the YC2.60 gene). The prepared cells were stimulated, and activation of the cells was measured. The procedure was as follows.
First, a plurality of sterile cover glasses (18×32 mm, Matsunami Glass) were placed at the bottom of a culture dish having a diameter of 100 mm so as not to be overlapped to each other. CHO-K1 cells (ATCC) were inoculated thereto while adjusting the number of the cells to obtain 60% confluence, and cultured for 24 hr. Then, medium exchange was carried out. As the medium, 12 mL of Ham's F-12K (Kaighn's) (Life Technologies) containing 10% fetal bovine serum (Life Technologies) was used. […]
Change of the intracellular calcium concentration was measured and analyzed with analysis software equipped with FV1200. An average YFP/CFP value of all the cell of which the YFP/CFP value was changed by stimulation with the ATP stimulation solution was calculated at each measurement. […]

[2] = tested on: control cells (CHO-K1 cells expressing YC2.60 gene); assay: Calcium imaging of control cells (CHO-K1 cells expressing YC2.60 gene only); assay type: cell-based, Chinese hamster; conditions: control cells without TMC6, stimulation with high-concentration NaCl solution
Method: CHO-K1 cells were transfected with TMC6-pcDNA3.1 or pcDNA3.1 in combination with YC2.60-pcDNA, to prepare TMC6-expressing cells (cells expressing the mouse TMC6 gene and the YC2.60 gene) and control cells (cells expressing the YC2.60 gene). The prepared cells were stimulated, and activation of the cells was measured. The procedure was as follows.
That is, first, CHO-K1 cells (ATCC) were inoculated into a culture dish having a diameter of 60 mm while adjusting the number of the cells to obtain 60% confluence, and cultured for 8 hr. As the medium, 5 mL of Ham's F-12K (Kaighn's) (Life Technologies) containing 10% fetal bovine serum (Life Technologies) was used. A 15 μL aliquot of FuGENE 6 (Promega) was added to 235 μL of Opti-MEM (Thermo Fisher Scientific), and incubated for 5 min at a room temperature. Then, 0.625 μg of TMC6-pcDNA3.1 and 2.5 μg of YC2.60-pcDNA were further added thereto, and incubated for 15 min at a room temperature. Then, the whole of the resultant mixture was dropped into the culture broth of the CHO-K1 cells, and the culture broth was mildly stirred. Then, the cells were further cultured for 18 hr under a condition of 5% CO2 at 37° C., to obtain the TMC6-expressing cells. Similarly, the control cells were obtained through transfection using pcDNA3.1 instead of TMC6-pcDNA3.1.
After the cultivation, the culture broth was removed. […]

[Cl-].[Na+] [NaCl, sodium chloride]
change of average YFP/CFP value (intracellular calcium concentration) [1]: increase
change of YFP/CFP value (intracellular calcium concentration) [2]: not observed an increase
